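Briefly, cells in 96-well plates were exposed to five compound concentrations for 48 h, and endpoints were estimated by linear interpolation. The concentration for 50% growth inhibition is given as GI50.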 The source made the active and inactive calls. Cut-off read from the data, not from the text of the source: active = GI50 up to about 1.1 µM and inactive = higher.
Key:
Assay in all cases: DTP human tumour cell line panel, 48 h
[1] = system: NCI-H226
[2] = system: NCI-H23
[3] = system: SNB-78
[4] = system: DMS-273
[5] = system: M14
[6] = system: SN12C
[7] = system: UACC-62
[8] = system: TK-10
[9] = system: HOP-92
[10] = system: SF-539
[11] = system: HOP-62
[12] = system: COLO 205
[13] = system: CAKI-1
[14] = system: HCT-15
[15] = system: UACC-257
[16] = system: RXF 393
[17] = system: OVCAR-4
[18] = system: LXFL 529
[19] = system: CCRF-CEM
[20] = system: SK-MEL-2
[21] = system: DMS-114
[22] = system: OVCAR-3
[23] = system: NCI-H522
[24] = system: NCI-H460
[25] = system: HCT-116
[26] = system: SR
[27] = system: RPMI-8226
[28] = system: SNB-75
[29] = system: SK-MEL-28
[30] = system: DLD-1
[31] = system: A549
[32] = system: KM12
[33] = system: SF-268
[34] = system: ACHN
[35] = system: HOP-18
[36] = system: OVCAR-8
[37] = system: KM-20L2
[38] = system: K562
[39] = system: MOLT-4
[40] = system: Malme-3M
[41] = system: SW-620
[42] = system: SK-OV-3
[43] = system: 786-0
[44] = system: IGROV-1
[45] = system: A498
[46] = system: OVCAR-5
[47] = system: M19-MEL
[48] = system: U-251
[49] = system: HL-60
[50] = system: UO-31
[51] = system: HT-29
[52] = system: SF-295
[53] = system: SK-MEL-5
[54] = system: LOX IMVI

In the case of `COc1ccc(/C=N/NC(=O)NCCNCCO)cc1`, the GI50 [1] is reported as > 100 µM (inactive), the GI50 [2] is reported as > 100 µM (inactive) and the GI50 [3] is reported as > 100 µM (inactive). The GI50 [4] was > 100 µM (inactive), the GI50 [5] was > 100 µM (inactive) and the GI50 [6] was > 100 µM (inactive). The GI50 [7] was > 100 µM (inactive), the GI50 [8] was > 100 µM (inactive) and the GI50 [9] was > 100 µM (inactive). For the same molecule, the GI50 [10] was > 100 µM (inactive), the GI50 [11] was > 100 µM (inactive) and the GI50 [12] was > 100 µM (inactive). For the same molecule, the GI50 [13] was > 100 µM (inactive), the GI50 [14] was over 100 µM and the GI50 [15] was > 100 µM (inactive). The GI50 [16] was > 100 µM (inactive), the GI50 [17] was > 100 µM (inactive) and the GI50 [18] was > 100 µM (inactive). The GI50 [19] was > 100 µM (inactive), the GI50 [20] was > 100 µM (inactive) and the GI50 [21] was > 100 µM (inactive). For the same molecule, the GI50 [22] was > 100 µM (inactive), the GI50 [23] was > 100 µM (inactive) and the GI50 [24] was > 100 µM (inactive). For the same molecule, the GI50 [25] was > 100 µM (inactive), the GI50 [26] was > 100 µM (inactive) and the GI50 [27] was > 100 µM (inactive). The GI50 [28] was > 100 µM (inactive), the GI50 [29] was > 100 µM (inactive) and the GI50 [30] was > 100 µM (inactive). The GI50 [31] was > 100 µM (inactive), the GI50 [32] was > 100 µM (inactive) and the GI50 [33] was > 100 µM (inactive). For the same molecule, the GI50 [34] was > 100 µM (inactive), the GI50 [35] was > 100 µM (inactive) and the GI50 [36] was > 100 µM (inactive). The GI50 [37] was > 100 µM (inactive), the GI50 [38] was > 100 µM (inactive) and the GI50 [39] was > 100 µM (inactive). For the same molecule, the GI50 [40] was > 100 µM (inactive), the GI50 [41] was > 100 µM (inactive) and the GI50 [42] was > 100 µM (inactive). For the same molecule, the GI50 [43] was > 100 µM (inactive), the GI50 [44] was > 100 µM (inactive) and the GI50 [45] was > 100 µM (inactive). For the same molecule, the GI50 [46] was > 100 µM (inactive), the GI50 [47] was > 100 µM (inactive) and the GI50 [48] was > 100 µM (inactive). For the same molecule, the GI50 [49] was > 100 µM (inactive), the GI50 [50] was > 100 µM (inactive) and the GI50 [51] was > 100 µM (inactive). The GI50 [52] was > 100 µM (inactive), the GI50 [53] was > 100 µM (inactive) and the GI50 [54] was > 100 µM (inactive).

— ChEMBL document CHEMBL1201862, “PubChem BioAssay data set” (2004)
